Results as given in patent US20230265151A1, “GIP/GLP1 CO-AGONIST COMPOUNDS” (priority 2020, published 2023).
Read-outs that look alike come from different tables or passages of the source. *1 amine or outer side, *2 acyl side, *3 side chain or, on linkers, in order; H or OH if unused. Where a SMILES comes first, the peptide text is derived from it. Side-chain parts run from the residue outwards. [ ]: non-standard residue; d: D form. The star is where a group is joined. Decanoyl(10-(4-HOOC-PhO)) = O=C(O)c1ccc(OCCCCCCCCCC(=O)*)cc1; αMePhe(2-F) = C[C@](N)(Cc1ccccc1F)C(=O)O; γGlu = O=C(O)[C@H](CCC(=O)[*:2])N[*:1]; C14 diacid = O=C(O)CCCCCCCCCCCCC(=O)*; εLys = N[C@@H](CCCCN[*:1])C(=O)[*:2]; αMeY = C[C@](N)(Cc1ccc(O)cc1)C(=O)O; 4Pal = N[C@@H](Cc1ccncc1)C(=O)O; αMeL = CC(C)C[C@](C)(N)C(=O)O; Orn = NCCC[C@H](N)C(=O)O; AEEA = NCCOCCOCC(=O)O; Aib = CC(C)(N)C(=O)O

Legend:
Format in all cases: cell-based
hGIPR = target: T1, hGIPR (Homo sapiens, UniProt P48546); assay: Functional cAMP formation (HTRF) in HEK-293 clonal cells expressing hGIPR, 0.1% bovine casein, without or with 1.0% human serum albumin; details: for EC50: geometric mean
T1 construct: expressed in transfected cells
T1 sequence (P48546 22-466): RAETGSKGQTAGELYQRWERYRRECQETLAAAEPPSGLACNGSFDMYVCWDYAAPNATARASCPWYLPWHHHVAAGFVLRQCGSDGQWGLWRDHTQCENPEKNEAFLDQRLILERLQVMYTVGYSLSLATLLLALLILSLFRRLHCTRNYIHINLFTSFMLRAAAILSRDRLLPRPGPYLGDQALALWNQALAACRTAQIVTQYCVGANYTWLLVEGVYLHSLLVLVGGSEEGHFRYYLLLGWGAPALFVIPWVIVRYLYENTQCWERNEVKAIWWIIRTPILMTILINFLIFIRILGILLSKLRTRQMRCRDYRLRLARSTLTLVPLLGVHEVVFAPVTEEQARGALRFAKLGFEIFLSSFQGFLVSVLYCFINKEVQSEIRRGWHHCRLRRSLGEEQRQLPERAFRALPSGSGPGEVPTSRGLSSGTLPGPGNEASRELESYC
Outline: (§1)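 Cells were stimulated with peptide for 30 min at 37° C, then intracellular cAMP was measured by competitive HTRF (665/620 nm ratio) and converted to nM using a cAMP standard curve. Relative EC50 and Emax came from four-parameter logistic fits of percent maximal response against peptide concentration.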

hGLP-1R = hGLP-1R (Homo sapiens, UniProt P43220); assay: Functional cAMP formation (HTRF) in HEK-293 clonal cells expressing hGLP-1R, 0.1% bovine casein, without or with 1.0% human serum albumin; set-up: expressed in transfected cells; details: for EC50: geometric mean
hGLP-1R, sequence (P43220 24-463): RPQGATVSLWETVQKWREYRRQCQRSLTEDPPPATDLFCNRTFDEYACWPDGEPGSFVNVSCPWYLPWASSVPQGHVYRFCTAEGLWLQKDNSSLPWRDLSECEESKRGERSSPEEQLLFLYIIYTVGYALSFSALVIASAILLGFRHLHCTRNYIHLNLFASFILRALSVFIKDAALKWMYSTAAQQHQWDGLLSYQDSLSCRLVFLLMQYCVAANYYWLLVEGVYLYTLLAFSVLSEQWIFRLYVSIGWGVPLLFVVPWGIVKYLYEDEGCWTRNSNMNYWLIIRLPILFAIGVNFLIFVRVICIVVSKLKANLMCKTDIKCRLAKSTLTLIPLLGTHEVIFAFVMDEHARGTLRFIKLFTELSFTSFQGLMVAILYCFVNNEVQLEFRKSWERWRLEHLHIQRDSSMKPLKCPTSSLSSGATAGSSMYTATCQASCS
Outline: as §1

hGCGR = target: T2, hGCGR (Homo sapiens, UniProt P47871); assay: Functional cAMP formation (HTRF) in HEK-293 clonal cells expressing hGCGR, 0.1% bovine casein, without or with 1.0% human serum albumin
T2 construct: expressed in transfected cells
T2 sequence (P47871 26-477): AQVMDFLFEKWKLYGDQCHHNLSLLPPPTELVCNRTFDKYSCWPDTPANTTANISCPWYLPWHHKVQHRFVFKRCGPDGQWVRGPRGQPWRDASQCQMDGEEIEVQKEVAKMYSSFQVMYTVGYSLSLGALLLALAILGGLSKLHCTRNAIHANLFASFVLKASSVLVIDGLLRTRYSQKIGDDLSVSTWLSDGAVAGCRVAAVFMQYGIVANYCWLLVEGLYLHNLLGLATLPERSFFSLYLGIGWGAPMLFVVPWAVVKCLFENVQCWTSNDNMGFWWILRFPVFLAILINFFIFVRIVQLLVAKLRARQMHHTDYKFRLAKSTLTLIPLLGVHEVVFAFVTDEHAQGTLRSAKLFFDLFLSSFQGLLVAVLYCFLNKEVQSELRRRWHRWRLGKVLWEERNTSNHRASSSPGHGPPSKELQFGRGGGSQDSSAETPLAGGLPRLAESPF
Outline: as §1

[1] = HEK293, read-out: hGIPR Emax, % ± SEM, cAMP, 37° C., 0.1% bovine casein and 1.0% human serum albumin, percent of maximal response to GIP(1-42)NH2
[2] = HEK293, read-out: hGIPR Emax, % ± SEM, cAMP, 37° C., 0.1% bovine casein, percent of maximal response to GIP(1-42)NH2, arithmetic mean
[3] = hGIPR EC50, nM (SEM, n), cAMP, 37° C., 0.1% bovine casein (no human serum albumin)
[4] = hGLP-1R EC50, nM (SEM, n), cAMP, 37° C., 0.1% bovine casein (no human serum albumin)
[5] = hGCGR EC50, nM (SEM, n), cAMP, 37° C., 0.1% bovine casein (no human serum albumin), geometric mean
[6] = hGCGR EC50, nM (SEM, n), cAMP, 37° C., 0.1% bovine casein and 1.0% human serum albumin, geometric mean (SEM, n)
[7] = cAMP, incubated at 37° C., 0.1% bovine casein (no human serum albumin), geometric mean, read-out: hGCGR EC50, nM (SEM, n)

SMILES | Emax (hGIPR; [1]) | Emax (hGIPR; [2]) | EC50 (hGIPR; [3]) | EC50 (hGLP-1R; [4]) | EC50 (hGCGR; [5]) | EC50 (hGCGR; [6]) | EC50 (hGCGR; [7]) | also measured
CC[C@H](C)[C@H](NC(=O)[C@H](CCCN)NC(=O)[C@H](CC(=O)O)NC(=O)[C@H](CC(C)C)NC(=O)[C@](C)(CC(C)C)NC(=O)[C@@H](NC(=O)C(C)(C)NC(=O)[C@@H](NC(=O)[C@H](CC(=O)O)NC(=O)[C@H](CO)NC(=O)[C@@H](NC(=O)[C@](C)(Cc1ccccc1F)NC(=O)[C@@H](NC(=O)CNC(=O)[C@H](CCC(=O)O)NC(=O)C(C)(C)NC(=O)[C@@H](N)Cc1ccc(O)cc1)[C@@H](C)O)[C@@H](C)O)C(C)C)[C@@H](C)CC)C(=O)N[C@@H](C)C(=O)N[C@@H](CCC(N)=O)C(=O)NC(C)(C)C(=O)N[C@@H](CCCCNC(=O)COCCOCCNC(=O)COCCOCCNC(=O)CC[C@H](NC(=O)CCCCCCCCCOc1ccc(C(=O)O)cc1)C(=O)O)C(=O)N[C@@H](Cc1ccccc1)C(=O)N[C@H](C(=O)N[C@H](CCC(=O)O)C(=O)N[C@@](C)(Cc1ccc(O)cc1)C(=O)N[C@@H](CC(C)C)C(=O)N[C@H](C(=O)N[C@@H](CCC(=O)O)C(=O)NCC(=O)NCC(=O)N1CCC[C@H]1C(=O)N[C@@H](CO)C(=O)N[C@@H](CO)C(=O)NCC(=O)N[C@@H](C)C(=O)N1CCC[C@H]1C(=O)N1CCC[C@H]1C(=O)N1CCC[C@H]1C(=O)N[C@@H](CO)C(=O)N[C@@H](CCCCNC(=O)COCCOCCNC(=O)COCCOCCNC(=O)CC[C@H](NC(=O)CCCCCCCCCOc1ccc(C(=O)O)cc1)C(=O)O)C(N)=O)[C@@H](C)CC)[C@@H](C)CC [Example 383] (H-Y[Aib]EGT[αMePhe(2-F)]TSDV[Aib]I[αMeL]LD[Orn]IAQ[Aib]K([AEEA-AEEA-γGlu-Decanoyl(10-(4-HOOC-PhO))])FI[dE][αMeY]LIEGGPSSGAPPPSK([AEEA-AEEA-γGlu-Decanoyl(10-(4-HOOC-PhO))])-NH2) | 82.8% | 100% | 0.0147 nM | 0.306 nM | > 9950 nM | > 9950 nM | – | Emax (hGLP-1R; HEK293, read-out: hGLP-1R Emax, % ± SEM, cAMP, 37° C., 0.1% bovine casein, percent of maximal response to GLP-1(7-36)NH2, arithmetic mean): 105%
CCCCCCCCCCCC(=O)N[C@@H](CCC(=O)NCCOCCOCC(=O)NCCOCCOCC(=O)NCCCC[C@H](NC(=O)CNC(=O)CNC(=O)[C@H](CCC(=O)O)NC(=O)[C@@H](NC(=O)[C@H](CC(C)C)NC(=O)[C@](C)(Cc1ccccc1)NC(=O)[C@@H](CCC(=O)O)NC(=O)[C@@H](NC(=O)[C@](C)(Cc1ccccc1)NC(=O)[C@H](CCC(=O)O)NC(=O)C(C)(C)NC(=O)[C@H](CCC(N)=O)NC(=O)[C@H](C)NC(=O)[C@H](CCCCNC(=O)COCCOCCNC(=O)COCCOCCNC(=O)CC[C@H](NC(=O)CCCCCCCCCCC)C(=O)O)NC(=O)[C@H](CCCN)NC(=O)[C@H](CC(=O)O)NC(=O)[C@H](CC(C)C)NC(=O)[C@](C)(CC(C)C)NC(=O)[C@@H](NC(=O)[C@H](CO)NC(=O)[C@H](Cc1ccncc1)NC(=O)[C@H](CC(=O)O)NC(=O)[C@H](CO)NC(=O)[C@@H](NC(=O)[C@](C)(Cc1ccccc1)NC(=O)[C@@H](NC(=O)CNC(=O)[C@H](CCC(=O)O)NC(=O)C(C)(C)NC(=O)[C@@H](N)Cc1ccc(O)cc1)[C@@H](C)O)[C@@H](C)O)[C@@H](C)CC)[C@@H](C)CC)[C@@H](C)CC)C(=O)N[C@@H](CO)C(=O)N[C@@H](CO)C(=O)NCC(=O)N[C@@H](C)C(=O)N1CCC[C@H]1C(=O)N1CCC[C@H]1C(=O)N1CCC[C@H]1C(=O)N[C@@H](CO)C(N)=O)C(=O)O [Example 174] | – | – | – | – | – | – | > 9950 nM | Emax (hGIPR; HEK293, percent of maximal response to GIP(1-42)NH2, 37° C., 0.1% bovine casein, arithmetic mean, read-out: hGIPR Emax, % ± SEM): 92.2%; Emax (hGLP-1R; HEK293, percent of maximal response to GLP-1(7-36)NH2, 37° C., 0.1% bovine casein, arithmetic mean, read-out: hGLP-1R Emax, % ± SEM): 98.2%
CC[C@H](C)[C@H](NC(=O)[C@H](CC(C)C)NC(=O)[C@](C)(Cc1ccc(O)cc1)NC(=O)[C@@H](CCC(=O)O)NC(=O)[C@@H](NC(=O)[C@H](Cc1ccccc1)NC(=O)[C@H](CCC(=O)O)NC(=O)C(C)(C)NC(=O)[C@H](CCC(N)=O)NC(=O)[C@H](C)NC(=O)[C@H](CCCCNC(=O)[C@@H](N)CCCCNC(=O)[C@@H](N)CCCCNC(=O)CC[C@H](NC(=O)CCCCCCCCCCCCC(=O)O)C(=O)O)NC(=O)[C@H](CCCN)NC(=O)[C@H](CC(=O)O)NC(=O)[C@H](CC(C)C)NC(=O)[C@](C)(CC(C)C)NC(=O)[C@@H](NC(=O)[C@H](CO)NC(=O)[C@H](Cc1ccncc1)NC(=O)[C@H](CC(=O)O)NC(=O)[C@H](CO)NC(=O)[C@@H](NC(=O)[C@](C)(Cc1ccccc1F)NC(=O)[C@@H](NC(=O)CNC(=O)[C@H](CCC(=O)O)NC(=O)C(C)(C)NC(=O)[C@@H](N)Cc1ccc(O)cc1)[C@@H](C)O)[C@@H](C)O)[C@@H](C)CC)[C@@H](C)CC)C(=O)N[C@@H](CCC(=O)O)C(=O)NCC(=O)NCC(=O)N[C@@H](CCCCNC(=O)[C@@H](N)CCCCNC(=O)[C@@H](N)CCCCNC(=O)CC[C@H](NC(=O)CCCCCCCCCCCCC(=O)O)C(=O)O)C(N)=O [Example 187] (H-Y[Aib]EGT[αMePhe(2-F)]TSD[4Pal]SI[αMeL]LD[Orn]K([εLys-εLys-γGlu-C14 diacid])AQ[Aib]EFI[dE][αMeY]LIEGGK([εLys-εLys-γGlu-C14 diacid])-NH2; N-terminus assumed) | – | – | – | – | – | – | > 9950 nM | EC50 (hGIPR; 0.1% bovine casein and 1.0% human serum albumin, 37° C., read-out: hGIPR EC50, nM (SEM, n)): 0.939 nM; Emax (hGIPR; HEK293, 0.1% bovine casein and 1.0% human serum albumin, 37° C., percent of maximal response to GIP(1-42)NH2, read-out: hGIPR Emax, % ± SEM): 79.3%; EC50 (hGIPR; cAMP, incubated at 37° C., 0.1% bovine casein (no human serum albumin), read-out: hGIPR EC50, nM (SEM, n)): 0.026 nM; EC50 (hGLP-1R; 0.1% bovine casein and 1.0% human serum albumin, 37° C., read-out: hGLP-1R EC50, nM (SEM, n)): 18 nM; Emax (hGLP-1R; HEK293, 0.1% bovine casein and 1.0% human serum albumin, 37° C., percent of maximal response to GLP-1(7-36)NH2, read-out: hGLP-1R Emax, % ± SEM): 109%; EC50 (hGLP-1R; cAMP, incubated at 37° C., 0.1% bovine casein (no human serum albumin), read-out: hGLP-1R EC50, nM (SEM, n)): 0.386 nM; EC50 (hGCGR; 0.1% bovine casein and 1.0% human serum albumin, 37° C., geometric mean, read-out: hGCGR EC50, nM (SEM, n)): > 9950 nM
CC[C@H](C)[C@H](NC(=O)[C@H](CCCN)NC(=O)[C@H](CC(=O)O)NC(=O)[C@H](CC(C)C)NC(=O)[C@](C)(CC(C)C)NC(=O)[C@@H](NC(=O)C(C)(C)NC(=O)[C@H](Cc1ccncc1)NC(=O)[C@H](CC(=O)O)NC(=O)[C@H](CO)NC(=O)[C@@H](NC(=O)[C@](C)(Cc1ccccc1F)NC(=O)[C@@H](NC(=O)CNC(=O)[C@H](CCC(=O)O)NC(=O)C(C)(C)NC(=O)[C@@H](N)Cc1ccc(O)cc1)[C@@H](C)O)[C@@H](C)O)[C@@H](C)CC)C(=O)N[C@@H](C)C(=O)N[C@@H](CCC(N)=O)C(=O)NC(C)(C)C(=O)N[C@@H](CCCN)C(=O)N[C@@H](Cc1ccccc1)C(=O)N[C@H](C(=O)N[C@@H](CCCCNC(=O)COCCOCCNC(=O)COCCOCCNC(=O)CC[C@H](NC(=O)CCCCCCCCCOc1ccc(C(=O)O)cc1)C(=O)O)C(=O)N[C@@](C)(Cc1ccc(O)cc1)C(=O)N[C@@H](CC(C)C)C(=O)N[C@H](C(=O)N[C@@H](CCCCNC(=O)COCCOCCNC(=O)COCCOCCNC(=O)CC[C@H](NC(=O)CCCCCCCCCOc1ccc(C(=O)O)cc1)C(=O)O)C(=O)NCC(=O)NCC(=O)N1CCC[C@H]1C(=O)N[C@@H](CO)C(=O)N[C@@H](CO)C(=O)NCC(=O)N[C@@H](C)C(=O)N1CCC[C@H]1C(=O)N1CCC[C@H]1C(=O)N1CCC[C@H]1C(=O)N[C@@H](CO)C(N)=O)[C@@H](C)CC)[C@@H](C)CC [Example 354] (H-Y[Aib]EGT[αMePhe(2-F)]TSD[4Pal][Aib]I[αMeL]LD[Orn]IAQ[Aib][Orn]FIK([AEEA-AEEA-γGlu-Decanoyl(10-(4-HOOC-PhO))])[αMeY]LIK([AEEA-AEEA-γGlu-Decanoyl(10-(4-HOOC-PhO))])GGPSSGAPPPS-NH2) | 67.5% | 95.4% | 0.0249 nM | 0.505 nM | > 9950 nM | > 9950 nM | – | Emax (hGLP-1R; HEK293, read-out: hGLP-1R Emax, % ± SEM, cAMP, 37° C., 0.1% bovine casein and 1.0% human serum albumin, percent of maximal response to GLP-1(7-36)NH2): 95.9%
